In the Deep4Chem optical property database:

Test: photoluminescence quantum yield (fraction); solvent given as SMILES

**Q.** Which photoluminescence quantum yield (in CC#N) does the source give for `CC1=[N+]2C(=C(c3ccc(-c4c5ccccc5c(-c5ccccc5)c5ccccc45)cc3)c3ccc(C)n3[B-]2(F)F)C=C1` here?
**A.** 0.002

**Q.** And the photoluminescence quantum yield (in CCCCCC)?
**A.** 0.204

**Q.** And the photoluminescence quantum yield (in CCO)?
**A.** 0.037

**Q.** And the photoluminescence quantum yield (in CN(C)C=O)?
**A.** 0.002

**Q.** What about the photoluminescence quantum yield (in Cc1ccccc1) of the same molecule?
**A.** 0.259

**Q.** What about the photoluminescence quantum yield (in ClCCl) of the same molecule?
**A.** 0.027

**Q.** Which photoluminescence quantum yield (in ClCCl) does the source give for `CCCCC(CC)Cn1c2cc(C#N)ccc2c2ccc(C#Cc3ccc4ccc5c(C#Cc6ccc7c8ccc(C#N)cc8n(CC(CC)CCCC)c7c6)cc(C#Cc6ccc7c8ccc(C#N)cc8n(CC(CC)CCCC)c7c6)c6ccc3c4c56)cc21` (stereo not drawn) here?
**A.** 0.64

**Q.** Which photoluminescence quantum yield (in C1CCOC1) does the source give for `Cc1cc(-c2ccc(-c3ccccc3)cc2)nc(-c2ccc(-n3c4ccccc4c4ccccc43)cc2)n1` here?
**A.** 0.22

**Q.** What about the photoluminescence quantum yield (in CN(C)C=O) of the same molecule?
**A.** 0.24

**Q.** What about the photoluminescence quantum yield (in Cc1ccccc1) of the same molecule?
**A.** 0.24

**Q.** And the photoluminescence quantum yield (in ClC(Cl)Cl)?
**A.** 0.43

**Q.** For `COc1ccc(-n2c3c4ccccc4nc(-c4ccc(C#N)cc4)c3c3c2c2c(-c4ccc(C#N)cc4)nc4ccccc4c2n3-c2ccc(OC)cc2)cc1`, which photoluminescence quantum yield (in ClC(Cl)Cl) is on record?
**A.** 0.074

**Q.** With `CN(C)c1ccc2nc(-c3ccc(/C=N/Nc4ccccc4)cc3)sc2c1` as the molecule, how does the photoluminescence quantum yield (in C1CCCCC1) read?
**A.** 0.023

**Q.** What about the photoluminescence quantum yield (in CC#N) of the same molecule?
**A.** 0.067

**Q.** What about the photoluminescence quantum yield (in CO) of the same molecule?
**A.** 0.026

**Q.** And the photoluminescence quantum yield (in ClC(Cl)Cl)?
**A.** 0.057

**Q.** What does the source list for `CN(C)c1ccc2nc(-c3ccc(C=O)cc3)sc2c1`?
**A.** photoluminescence quantum yield (in C1CCCCC1): 0.8; photoluminescence quantum yield (in CC#N): 0.66; photoluminescence quantum yield (in CO): 0.1; photoluminescence quantum yield (in ClC(Cl)Cl): 0.85

**Q.** For `c1ccc2c(c1)OP1(=NP3(=NP(Oc4ccc5ccc6cccc7ccc4c5c67)(Oc4ccc5ccc6cccc7ccc4c5c67)=N1)Oc1ccccc1-c1ccccc1O3)Oc1ccccc1-2`, which photoluminescence quantum yield (in ClCCl) is on record?
**A.** 0.82

**Q.** For `Cc1cc(C)n2c1C=[N+]1[N+](=C3C=NC=CN3[B-]1(F)F)[B-]2(F)F`, which photoluminescence quantum yield (in ClCCl) is on record?
**A.** 0.57

**Q.** With `CCCC1=Cc2nc1ccc1[nH]c(cc1CCC)c1nc(c(OC)cc3[nH]c2cc3CCC)C(CCC)=C1` as the molecule, how does the photoluminescence quantum yield (in Cc1ccccc1) read?
**A.** 0.18

**Q.** With `CCCCNC(=O)c1nc2c(N(C)C)nc(N(C)C)nc2n1Cc1ccccc1` as the molecule, how does the photoluminescence quantum yield (in C1COCCO1) read?
**A.** 0.95

**Q.** What about the photoluminescence quantum yield (in CC#N) of the same molecule?
**A.** 0.95

**Q.** What about the photoluminescence quantum yield (in CO) of the same molecule?
**A.** 0.89

**Q.** What about the photoluminescence quantum yield (in ClCCl) of the same molecule?
**A.** 0.87

**Q.** Which photoluminescence quantum yield (in C1CCCCC1) does the source give for `CCC1=C(C)C(=O)n2c1cc1[nH]c(C(=O)OC(C)(C)C)c(C)c1c2=O` here?
**A.** 0.03

**Q.** What about the photoluminescence quantum yield (in CO) of the same molecule?
**A.** 0.71

**Q.** And the photoluminescence quantum yield (in CS(C)=O)?
**A.** 0.86

**Q.** What about the photoluminescence quantum yield (in ClC(Cl)Cl) of the same molecule?
**A.** 0.72

**Q.** And the photoluminescence quantum yield (in c1ccccc1)?
**A.** 0.16

**Q.** Which results are given for `CC1=[N+]2C(=Cc3ccc(C)n3[B-]2(F)F)C=C1c1cc2n(c1)[B-](F)(F)[N+]1=CC=CC1=C2c1c(C)cc(C)cc1C`?
**A.** photoluminescence quantum yield (in C1CCCCC1): 0.98; photoluminescence quantum yield (in CCOC(C)=O): 0.11

**Q.** With `FC(F)(F)c1ccc(-c2nc(-c3ccc(C(F)(F)F)cc3)n3ccccc23)cc1` as the molecule, how does the photoluminescence quantum yield (in ClC(Cl)Cl) read?
**A.** 0.16

**Q.** Which photoluminescence quantum yield (in ClCCl) does the source give for `CCCCCCCCOc1cc(/C=C/c2ccncc2)c(OCCCCCCCC)cc1/C=C/c1ccncc1` here?
**A.** 0.634

**Q.** Which photoluminescence quantum yield (in ClCCl) does the source give for `CCCCC(CC)Cn1c2cc(C#N)ccc2c2ccc(C#Cc3ccc4ccc5cccc6ccc3c4c56)cc21` (stereo not drawn) here?
**A.** 0.59

**Q.** For `Cc1cc(C)c(B(c2c(C)cc(C)cc2C)c2cc3ccc4ccccc4c3c3c2ccc2ccccc23)c(C)c1`, which photoluminescence quantum yield (in C1CCCCC1) is on record?
**A.** 0.65

**Q.** And the photoluminescence quantum yield (in C1CCOC1)?
**A.** 0.73

**Q.** What about the photoluminescence quantum yield (in CC#N) of the same molecule?
**A.** 0.58

**Q.** And the photoluminescence quantum yield (in ClC(Cl)Cl)?
**A.** 0.8

**Q.** What about the photoluminescence quantum yield (in c1ccccc1) of the same molecule?
**A.** 0.89

**Q.** For `Brc1ccc(/C=C/c2ccncn2)cc1`, which photoluminescence quantum yield (in ClCCl) is on record?
**A.** 0.01

**Q.** With `CNc1ccc2nc3cc(Cl)c(Cl)cc3nc2c1` as the molecule, how does the photoluminescence quantum yield (in CCO) read?
**A.** 0.06

**Q.** For `CCCCn1c(-c2ccc(-c3nnc(-c4ccc(-c5nc(-c6ccccc6)c(-c6ccccc6)n5CCCC)cc4)o3)cc2)nc(-c2ccccc2)c1-c1ccccc1`, which photoluminescence quantum yield (in ClCCl) is on record?
**A.** 0.69

**Q.** Which photoluminescence quantum yield (in CO) does the source give for `COCCOCCOCCNc1cc2c3c(c(NCCOCCOCCOC)cc4c3c1C(=O)N(CCOCCOCCOC)C4=O)C(=O)N(CCOCCOCCOC)C2=O` here?
**A.** 0.33

**Q.** And the photoluminescence quantum yield (in ClC(Cl)Cl)?
**A.** 0.56

**Q.** And the photoluminescence quantum yield (in O)?
**A.** 0.039

**Q.** With `COC(=O)/C(C#N)=c1\s/c(=c2/s/c(=C(/C#N)C(=O)OC)c3cc(-c4ccccc4)sc23)c2sc(-c3ccccc3)cc12` as the molecule, how does the photoluminescence quantum yield (in Cc1ccccc1) read?
**A.** 0.366

**Q.** Which photoluminescence quantum yield (in ClC(Cl)Cl) does the source give for `F[B-]1(F)OC(c2ccc(Br)cc2)=Cc2c3ccccc3c3ccccc3[n+]21` here?
**A.** 0.152

**Q.** Which photoluminescence quantum yield (in ClCCl) does the source give for `COc1ccc(-c2c3cc4ccccc4cc3c(C#Cc3ccccc3)c3cc4ccccc4cc23)cc1` here?
**A.** 0.02

**Q.** With `COc1ccc(-c2csc(/C(C#N)=C/c3ccc(C(F)(F)F)cc3)n2)cc1` as the molecule, how does the photoluminescence quantum yield (in CC#N) read?
**A.** 0.015

**Q.** For `O=C1NC(c2ccccc2)=C/C1=C\c1ccccc1`, which photoluminescence quantum yield (in C1COCCO1) is on record?
**A.** 0.012

**Q.** With `CC1(C)c2ccccc2N(c2cc[n+]3c(c2)-c2ccccc2O[B-]3(F)F)c2ccccc21` as the molecule, how does the photoluminescence quantum yield (in O=P(c1ccccc1)(c1ccccc1)c1ccccc1Oc1ccccc1P(=O)(c1ccccc1)c1ccccc1) read?
**A.** 0.65

**Q.** Which photoluminescence quantum yield (in CO) does the source give for `N#Cc1ccc(-c2nc(-c3ccccc3)c(-c3ccccc3)[nH]2)cc1` here?
**A.** 0.52

**Q.** Which results are given for `COc1ccc2c(-c3nc(-c4cccc(Br)c4)no3)cc(=O)oc2c1`?
**A.** photoluminescence quantum yield (in CCO): 0.41; photoluminescence quantum yield (in ClC(Cl)Cl): 0.33

**Q.** With `[O-]c1ccccc1-c1[nH+]c2c3ccccc3c3ccccc3c2n1-c1ccccc1` as the molecule, how does the photoluminescence quantum yield (in Cc1ccccc1) read?
**A.** 0.191

**Q.** For `CC1=CC(/C=C/c2ccc(OCCCN=[N+]=[N-])cc2)=[N+]2C1=C(c1ccccc1)c1c(C)cc(C)n1[B-]2(F)F`, which photoluminescence quantum yield (in CO) is on record?
**A.** 1

**Q.** For `N#Cc1cc(/C=C/c2ccc(N(c3ccccc3)c3ccccc3)cc2)ccc1/C=C/c1ccc(/C=C/c2ccc(N(c3ccccc3)c3ccccc3)cc2)cc1C#N`, which photoluminescence quantum yield (in ClCCl) is on record?
**A.** 0.41

**Q.** For `Cn1c(=O)c(/N=N/c2ccc(S(=O)(=O)O)c3ccccc23)c(O)c2ccccc21`, which photoluminescence quantum yield (in CS(C)=O) is on record?
**A.** 0.02

**Q.** What does the source list for `Cn1c(/C=C/c2ccc(/C=C/c3nc4ccccc4[nH]3)cc2)[n+](C)c2ccccc21`?
**A.** photoluminescence quantum yield (in C1CCOC1): 0.157; photoluminescence quantum yield (in CC#N): 0.109; photoluminescence quantum yield (in CC(C)=O): 0.103; photoluminescence quantum yield (in CN(C)C=O): 0.12; photoluminescence quantum yield (in CO): 0.067; photoluminescence quantum yield (in CS(C)=O): 0.114; photoluminescence quantum yield (in O): 0.044

**Q.** What does the source list for `Cc1ccccc1C(=O)NN1C2=C(CC3=C1CC(C)(C)CC3=O)C(=O)CC(C)(C)C2`?
**A.** photoluminescence quantum yield (in C1CCOC1): 0.26; photoluminescence quantum yield (in CC#N): 0.7; photoluminescence quantum yield (in CC(C)=O): 0.53; photoluminescence quantum yield (in CCCCCO): 0.5; photoluminescence quantum yield (in CO): 0.3; photoluminescence quantum yield (in ClC(Cl)Cl): 0.64; photoluminescence quantum yield (in ClCCl): 0.47

**Q.** Which photoluminescence quantum yield (in ClCCl) does the source give for `c1ccc2c(c1)-c1sc3ccccc3c1C21c2ccccc2-c2sc3ccccc3c21` here?
**A.** 0.06

**Q.** For `CC(C)(C)c1ccc2oc3nc4oc5ccc(N(c6ccccc6)c6ccccc6)cc5c4cc3c2c1`, which photoluminescence quantum yield (in ClC(Cl)Cl) is on record?
**A.** 0.083

**Q.** For `CCCCN1C(=O)c2cc(Br)c3c4c(Br)c(Br)c5c6c(cc(Br)c(c7c(Br)c(Br)c(c2c37)C1=O)c64)C(=O)N(CCCC)C5=O`, which photoluminescence quantum yield (in ClC(Cl)Cl) is on record?
**A.** 0.11

**Q.** Which results are given for `O=C(c1ccc(N(c2ccccc2)c2ccccc2)cc1)[C@H]1[C@H](c2ccccc2)C[C@](O)(c2ccccn2)C[C@]1(O)c1ccccn1`?
**A.** photoluminescence quantum yield (in C1CCOC1): 0.48; photoluminescence quantum yield (in CC#N): 0.02; photoluminescence quantum yield (in CCO): 0.01; photoluminescence quantum yield (in CCOC(C)=O): 0.4; photoluminescence quantum yield (in CN(C)C=O): 0.03; photoluminescence quantum yield (in ClCCl): 0.25; photoluminescence quantum yield (in c1ccccc1): 0.93

**Q.** With `Fc1c(F)c(-n2c3ccccc3c3ccccc32)c(F)c(F)c1/C=C/C(=C(c1ccccc1)c1ccccc1)c1ccccc1` as the molecule, how does the photoluminescence quantum yield (in Cc1ccccc1) read?
**A.** 0.001

**Q.** For `CCCCCCc1ccc(-n2c3c4cccc(OC)c4nc(-c4ccc(C#N)cc4)c3c3c2c2c(-c4ccc(C#N)cc4)nc4c(OC)cccc4c2n3-c2ccc(CCCCCC)cc2)cc1`, which photoluminescence quantum yield (in ClC(Cl)Cl) is on record?
**A.** 0.13

**Q.** Which photoluminescence quantum yield (in ClCCl) does the source give for `c1ccc(N(c2ccccc2)c2ccc(-c3ccc(-c4nc(-c5ccccn5)n(-c5ccccc5)n4)cc3)cc2)cc1` here?
**A.** 0.392
